Test results reported in patent publication EP4813999A1, “NOVEL PEPTIDE DERIVATIVE AND PHARMACEUTICAL COMPOSITION FOR PREVENTING OR TREATING MACULAR DEGENERATION COMPRISING SAME” (Supadelixir Inc., priority 2023, dated 2026).

Columns and labels:
HUVECs = experiment: VEGF-induced tube formation on Matrigel; format: cell-based, human; conditions: VEGF 10 ng/ml, test substance 0.1, 1, 10, 100 nM, 24 hours
Protocol: The anti-angiogenic activity of the test substance (SE101B2L) was evaluated using HUVECs. HUVECs were cultured in CEFOgro-HUVEC basal medium (CEFO Co., Ltd.) supplemented with growth supplements containing vascular endothelial cell growth-related factors and serum (HUVEC supplements, CEFO Co., Ltd.), which was used as vascular endothelial cell growth medium (hereinafter denoted as "growth medium").
The experiment was conducted by dividing the groups into an untreated group, a group treated with VEGF alone, and a group co-treated with VEGF and the test substance (SE101B2L).
First, tube formation ability was confirmed to determine whether the test substance inhibited VEGF-induced angiogenesis. HUVECs were seeded into a Matrigel-coated 48-well plate at 5 × 10^4 cells per well together with 0.5 ml of growth medium. VEGF was added to each VEGF-treated group to a final concentration of 10 ng/ml, while the test substance was added to each test substance-treated group to final concentrations of 0.1, 1, 10, and 100 nM. The test plate was incubated in an incubator with 5% CO2 at 37°C for 24 hours. After 24 hours, the degree of tube formation was observed under a microscope and photographed. The total tube length in each image was measured using the ImageJ program. The results were converted to values relative to the tube length for the untreated group.

[1] = tested on: CNV-induced male chinchilla rabbits; experiment: Macular degeneration animal model: laser-induced CNV, retinal fluorescein fundus imaging; format: in vivo; conditions: instillation 50 µL twice daily, Day 7 and Day 14, versus induced control group (G1)
From the text: As a macular degeneration animal model, CNV-induced male chinchilla rabbits were used. The efficacy test using the CNV animal model was commissioned to HLB Biostep Co., Ltd. (formerly Notus Co., Ltd.). In order to induce CNV formation, a mydriatic agent (Mydriacyl 1% eye drops) was instilled into the right eye of each chinchilla rabbit, followed by anesthesia. Thereafter, the right eye was irradiated using a laser (LIGHTLas 532, LIGHTMED, USA) under conditions of a wavelength of 532 nm and a power of 150 mW for 0.1 seconds, thereby creating six wounds in the 6 o'clock direction centered on the optic nerve.
An induced control group (G1) was repeatedly administered 0.9% aqueous sodium chloride solution (vehicle) by instillation twice daily. […]
After initiation of administration to each group, a mydriatic agent (Mydriacyl 1% eye drops) was instilled into the right eye of each animal on Day 0, Day 7, and Day 14, followed by anesthesia. […] Confirmation of retinal CNV and evaluation of pharmacological efficacy were performed using retinal fluorescein fundus images, and image analysis was performed using the ImageJ software (NIH, Bethesda, MD) to analyze fluorescence intensity at irradiated sites.
Assuming normality for the results of the present test, significance between test groups was analyzed using parametric one-way analysis of variance (one-way ANOVA). […]

ARPE19 cells = experiment: Hydrogen peroxide-induced cellular senescence (SA-β-Gal activity staining); format: cell-based, Human; conditions: 200 µM hydrogen peroxide, test substance 0.01, 0.1, 1 µM, 24 hours
Protocol: Human retinal pigment epithelial cells (ARPE19) were cultured in a humidified incubator with 5% CO2 at 37°C. DMEM/F12 (Gibco) containing 10% fetal bovine serum and penicillin (100 U/ml)/streptomycin ([…]) was used as medium. The cells were cultured with the medium replaced with fresh medium every other day and were passaged using 0.25% trypsin containing 0.02% ethylenediaminetetraacetic acid (EDTA).
After cellular senescence caused by oxidative stress was promoted in ARPE19 cells using hydrogen peroxide (H2O2), the test substance (SE101B2L) was added at varying concentrations to evaluate inhibitory effects against cellular senescence. Inhibitory activity against cellular senescence was evaluated using senescence-associated β-galactosidase (SA-β-Gal) activity staining, which is well known as a marker for cellular senescence.
ARPE19 cells were seeded into a 96-well plate at 1 × 10^5 cells/well and cultured in an incubator with 5% CO2 at 37°C for 24 hours. […] Cells stained blue were observed under an optical microscope, and the degree of SA-β-gal activity was expressed as a percentage by measuring the number of cells stained blue in the cytoplasm among a total of 50 to 100 cells. The degree of senescence was quantified through measurement.

decylbenzoyl-Cys-Phe-Lys-amide [SE101B2L]
tube formation ability (total tube length) (HUVECs): reduced by the test substance in a concentration-dependent manner
retinal fluorescence intensity ([1]; G3: 3750 ppm): statistically significantly lower than those in the induced control group (G1) (p < 0.001)
retinal fluorescence intensity ([1]; G4: 187.5 ppm): statistically significantly lower than those in the induced control group (G1) (p < 0.001)
SA-β-gal activity (ARPE19 cells): decreases SA-β-gal activity in a concentration-dependent manner
